# Like-named read-outs stand apart in the source and are kept apart here.
# How the values were obtained:
# [1] = Liver retinoids of Lrat-/- mice 3 h after gavage with all-trans-RA; assay type: in vivo, mouse; settings: 3 h post-gavage
# Description: (§1) Metabolism of Retinoids in Vivo. All animal experiments employed procedures approved by the University of Washington and conformed to recommendations of the American Veterinary Medical Association Panel on Euthanasia and recommendations of the Association of Research for Vision and Ophthalmology. Animals were maintained on a 12-h light and 12-h dark cycle. All manipulations were done under dim red or infrared light (>560 nm). Most experiments used 6-12-week-old mice. Lrat−/− mice were genotyped as described previously. Batten, et al. J. Biol. Chem. 279:10422-10432, 2004. Animals were maintained on a control chow diet up to 1 h prior to oral gavage. The appropriate amount of all-trans-ROL palmitate, all-trans-DROL, or all-trans-RA was dissolved in vegetable oil and administered by oral gavage 3 h prior to analysis.
# (§2) Analysis of Retinoids. Liver (1 g) from retinoid gavaged or naive mice was homogenized in 2 ml of 137 mM NaCl, 2.7 mM KCl, and 10 mM sodium phosphate (pH 7.4) for 30 s using a Polytron homogenizer. 10 μl of 5 M NaOH was added to 3 ml of the ethanolic extract, and the nonpolar retinoids were extracted using 5 ml of hexane. The extraction was repeated, and the organic phases were combined, dried under vacuum, resuspended in hexane, and examined by normal phase HPLC using a normal phase column (Beckman Ultrasphere Si 5μ, 4.6×250 mm). […] The HPLC elution conditions were […], 100% buffer A for 40 min, 100% buffer B for 10 min, and 10 min equilibration in buffer A. The elution profiles of RA and DRA were monitored using an online diode array detector set at 350 and 290 nm, respectively. […] The measured area of absorbance was converted to picomoles based on a calibration of the HPLC columns using a known amount of all-trans-RA or all-trans-ROL (Sigma) and all-trans-DROL or all-trans-DRA (synthetic standards). The extraction efficiency was monitored by spiking a tissue sample with [^3H]RA (PerkinElmer Life Sciences) and monitoring the radioactivity recovered from the HPLC column. […]
# [2] = Liver retinoids of Lrat-/- mice 3 h after gavage with all-trans-ROL palmitate; assay type: in vivo, mouse; settings: Lrat−/− (LRAT-deficient knockout), mouse, liver, oral, Lrat-/- mice, liver, 3 hr post-gavage, read-out: Level of liver retinoids 3 hr following gavage with ROL palmitate
# Description: as §1
# Analysis of Retinoids. Liver (1 g) from retinoid gavaged or naive mice was homogenized in 2 ml of 137 mM NaCl, 2.7 mM KCl, and 10 mM sodium phosphate (pH 7.4) for 30 s using a Polytron homogenizer. 10 μl of 5 M NaOH was added to 3 ml of the ethanolic extract, and the nonpolar retinoids were extracted using 5 ml of hexane. The extraction was repeated, and the organic phases were combined, dried under vacuum, resuspended in hexane, and examined by normal phase HPLC using a normal phase column (Beckman Ultrasphere Si 5μ, 4.6×250 mm). The elution condition was an isocratic solvent system of 10% ethyl acetate in hexane (v/v) for 25 min at a flow rate of 1.4 ml/min at 20° C. with detection at 325 and 290 nm for the detection of nonpolar retinoids and 13,14-dihydroretinoids, respectively. The aqueous phase was acidified with 40 μl of 12 N HCl, and polar retinoids were extracted with 5 ml of hexane. The extraction was repeated, and the organic phases of the polar retinoid extractions were combined, dried, resuspended in solvent composed of 80% CH3CN, 10 mM ammonium acetate, 1% acetic acid, and examined by reverse phase HPLC. Analysis of polar retinoids from tissues was done by reverse phase HPLC using a narrowbore, 120-Å, 5-μm, 2.1×250 mm, Denali C18 column (Grace-Vydac, Hesperia, Calif.). The solvent system was composed of buffer A, 80% methanol, 20% 36 mM ammonium acetate (pH 4.7 adjusted with acetic acid), and buffer B, 100% methanol. The HPLC elution conditions were […], 100% buffer A for 40 min, 100% buffer B for 10 min, and 10 min equilibration in buffer A. The elution profiles of RA and DRA were monitored using an online diode array detector set at 350 and 290 nm, respectively. The peaks were identified based on their UV-visible spectra and/or coelution with synthetic or commercially available standards. The measured area of absorbance was converted to picomoles based on a calibration of the HPLC columns using a known amount of all-trans-RA or all-trans-ROL (Sigma) and all-trans-DROL or all-trans-DRA (synthetic standards). The extraction efficiency was monitored by spiking a tissue sample with [^3H]RA (PerkinElmer Life Sciences) and monitoring the radioactivity recovered from the HPLC column. In the case of liver samples the extraction efficiency was 95% or better. Mass spectrometry analyses of synthesized retinoids and of natural retinoids purified by HPLC were performed using a Kratos profile HV-3 direct probe mass spectrometer.
# [3] = Liver retinoids of Lrat-/- mice 3 h after gavage with all-trans-DROL; assay type: in vivo, mouse; settings: 3 h post-gavage
# Description: as §1, §2
# tomato CRTISO = target: T1, tomato CRTISO (Solanum lycopersicum, UniProt Q8S4R4); experiment: CRTISO activity in transfected HEKK cells; assay type: cell-based; settings: CRTISO-expressing cells, overnight, in the dark
# T1 construct: expressed in transfected cells
# T1 sequence (Q8S4R4 with tags, fused parts or gaps): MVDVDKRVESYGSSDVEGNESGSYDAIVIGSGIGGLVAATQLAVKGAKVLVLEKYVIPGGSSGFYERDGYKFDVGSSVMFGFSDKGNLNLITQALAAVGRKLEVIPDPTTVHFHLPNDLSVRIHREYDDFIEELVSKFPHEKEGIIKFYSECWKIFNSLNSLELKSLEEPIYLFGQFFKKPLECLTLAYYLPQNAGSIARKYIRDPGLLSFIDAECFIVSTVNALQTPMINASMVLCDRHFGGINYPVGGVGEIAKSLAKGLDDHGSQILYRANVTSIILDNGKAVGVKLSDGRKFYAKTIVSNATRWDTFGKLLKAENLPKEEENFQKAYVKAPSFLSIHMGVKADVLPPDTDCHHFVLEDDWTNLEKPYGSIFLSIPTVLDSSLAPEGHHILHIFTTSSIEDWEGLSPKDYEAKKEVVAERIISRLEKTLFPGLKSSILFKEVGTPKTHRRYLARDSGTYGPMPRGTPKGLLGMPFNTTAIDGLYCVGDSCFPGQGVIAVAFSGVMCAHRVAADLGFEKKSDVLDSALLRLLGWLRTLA
# Description: 7Z,9Z,9′Z,7′Z-Tetra-cis-tycopene purification and reverse-phase HPLC analysis of carotenoids. Carotenoid extraction and analysis were performed under dim red light. One gram from the fruit of a tangerine tomato was freeze-thawed three times and extracted with 2 ml PBS, 2 ml of ethanol, and 6 ml of hexane with the aid of a douncer. The organic phase was dried and resuspended in ethanol/tetrahydrofuran (9:1), and examined by reverse-phase HPLC System I (Prontosil, 200-3-C30, 3 μm, 4.6 mm×250 mm, Bischoff Chromatography, Leonberg, Germany) with a mobile phase of 75% tert-butyl methyl ether/25% methanol and a flow rate of 1 ml/min. More than 90% of the extract consisted of 7Z,9Z,9′Z,7′Z-tetra-cis-lycopene identified based on its published UV/VIS absorption spectrum in hexane with the following characteristics: shoulder at λ=417 nm, ε=90,000 M^−1cm^−1, λmax=437 nm, ε=105,000 M−1 cm^−1, shoulder at λ=461 nm ε=70,000 M^−1cm^−1. Bradford, Anal Biochem 72:248-254, 1976.
# Enzyme assays of RetSat and CRTISO-catalyzed reactions. For enzyme assay, cells were seeded in six-well plates and expression of RetSat or CRTISO was induced with 1 μg/ml tetracycline 48 hr prior to analysis. […] For retinol and dihydroretinol analysis the methanol:water mixture was extracted with two volumes of hexane, then the organic phase was dried, resuspended in hexane, and analyzed by normal-phase HPLC. […]
# mouse RetSat [4] = target: T2, mouse RetSat (Mus musculus, UniProt Q64FW2); experiment: RetSat saturase activity in Tet-induced HEKK-RetSat cells; assay type: cell-based; settings: 40 μM substrate, overnight incubation
# T2 construct: expressed in transfected cells
# T2 sequence (Q64FW2 26-609): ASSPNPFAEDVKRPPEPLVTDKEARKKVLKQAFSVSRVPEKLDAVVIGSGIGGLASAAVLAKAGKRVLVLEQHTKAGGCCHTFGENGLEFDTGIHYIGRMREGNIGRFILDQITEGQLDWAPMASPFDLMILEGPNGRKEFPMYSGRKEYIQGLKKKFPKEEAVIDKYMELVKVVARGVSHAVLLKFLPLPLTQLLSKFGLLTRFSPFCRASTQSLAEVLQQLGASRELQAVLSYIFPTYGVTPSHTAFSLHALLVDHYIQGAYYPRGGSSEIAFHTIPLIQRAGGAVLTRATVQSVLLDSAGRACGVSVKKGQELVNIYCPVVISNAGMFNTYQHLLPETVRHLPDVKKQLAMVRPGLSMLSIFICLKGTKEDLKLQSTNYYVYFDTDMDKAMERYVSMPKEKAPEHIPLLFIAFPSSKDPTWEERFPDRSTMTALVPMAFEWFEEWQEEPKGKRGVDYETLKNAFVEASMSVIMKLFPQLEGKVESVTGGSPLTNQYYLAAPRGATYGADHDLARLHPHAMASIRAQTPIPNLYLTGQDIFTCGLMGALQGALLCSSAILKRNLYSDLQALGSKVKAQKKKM
# Description: Enzyme assays of RetSat and CRTISO-catalyzed reactions. For enzyme assay, cells were seeded in six-well plates and expression of RetSat or CRTISO was induced with 1 μg/ml tetracycline 48 hr prior to analysis. Substrate preparation and addition were conducted under dim red light. Retinoid substrates were purified by HPLC as described above and dissolved in N,N-dimethylformamide (DMF) to a final concentration of 4 mM. Organic extract of tangerine tomatoes was dried under a stream of argon and resuspended in DMF. The substrates were diluted in 300 μl complete media (tetracycline 1 μg/ml) to a 40 μM final concentration, overlayed on cells, and incubated overnight in the dark at 37° C. in 5% CO2 and 100% humidity. Media and cells were collected by scraping, mixed with an equal volume of methanol. For retinol and dihydroretinol analysis the methanol:water mixture was extracted with two volumes of hexane, then the organic phase was dried, resuspended in hexane, and analyzed by normal-phase HPLC. […] For carotenoid analysis the organic phase was dried and resuspended in ethanol/tetrahydrofuran (9:1) and examined by reverse-phase HPLC System I. For retinoic acid analysis the 1:1 methanol:water mixture was acidified with 0.1 volumes of 12N HCl and extracted with 1 volume of chlorofom, dried and resuspended in ethanol and examined by reverse-phase HPLC System II.
# mouse RetSat [5] = target: T2, mouse RetSat; settings: earlier report, Moise et al. 2004; cited from earlier work
smiles,measurement,setting,value
"CC1=C(/C=C/C(C)=C/C=C/C(C)CO)C(C)(C)CCC1 (single isomer, unassigned) [C19-ROL, (3E,5E,7E)-2,6-dimethyl-8-(2,6,6-trimethylcyclohex-1-enyl)octa-3,5,7-trien-1-ol]",Formation in liver after gavage with all-trans-RA,[1],no evidence
same,concentration at 3 h,[2]; 10^5 IU/kg body weight all-trans-ROL palmitate,200 ± 8 nM
same,concentration at 3 h,[2]; 10^6 IU/kg body weight all-trans-ROL palmitate,1800 nM
same,Level in liver after gavage with all-trans-DROL,[3],low levels
"CC(C)=CCC/C(C)=C/C=C/C(C)=C/C=C/C(C)=C/C=C/C=C(C)/C=C/C=C(C)/C=C/C=C(\C)CCC=C(C)C [7Z,9Z,9′Z,7′Z-tetra-cis-lycopene]",Conversion by CRTISO (substrate activity),tomato CRTISO,converted
same,Saturation by RetSat (substrate activity),mouse RetSat [4],no difference
"CC1=C(/C=C/C(C)=C\C=C\C(C)=C\C(=O)O)C(C)(C)CCC1 [9-cis-RA, 9-cis-retinoic acid]",Saturation by RetSat,mouse RetSat [5],does not saturate
CC(C=CC1=C(C)C(=O)CCC1(C)C)=CC=CC(C)CC(=O)O (stereo not drawn) [all-trans-4-oxo-DRA],Formation in liver after gavage with all-trans-RA,[1],no evidence
same,Level in liver after gavage with all-trans-DROL,[3],significant levels

# Source: US20080249042A1, “All-Trans-Retinol: All-Trans-13,14-Dihydroretinol Saturase and Methods of Its Use” (UNIVERSITY OF WASHINGTON, priority 2004, published 2008)
